Measured values taken from paper PMC9880438, “Pharmacokinetics of active compounds of a Terminalia chebula Retz. Ethanolic extract after oral administration rats using UPLC-MS/MS” (Frontiers in Pharmacology, 2023).

Columns and labels:
[1] = Stability of QC samples of the analytes in rat plasma under storage conditions; format: physicochemical; conditions: n = 6
Description: Preparation of quality control (QC) samples with three concentrations (low, medium, and high) of 16, 160, and 3,200 ng/ml for ellagic acid; 1.6, 16, 320 ng/ml for protocatechuic acid, ethyl gallate and 1,2,3,4,6-O-pentagalloylglucose; 40, 400 and 8,000 ng/ml for chebulic acid, gallic acid, corilagin and chebulinic acid and 160, 1,600, 32000 ng/ml for chebulagic acid. Both QC samples and stock solutions were stored in a refrigerator at 4°C.
Under variable treatment conditions: stored for 12 h at auto-sampler, for 4 hours at room temperature, under three freeze-thaw cycles, and kept at −80°C for 7 days, quality control samples were analyzed to assess the stability of the nine analytes in plasma.

HepG2 cells = test system: HepG2 cells; parameters: method as in Achari et al., 2011; conditions: 50 μM; ref Achari et al., 2011; cited from earlier work
[2] = Pharmacokinetic study in rats after oral administration of TC extracts (UPLC-MS/MS of plasma); conditions: male, Sprague-Dawley, rat, plasma, po, 10 g/kg
Description: UPLC-MS/MS system was used for analysis and monitoring, which consisted primarily of an Agilent 1290 UPLC system (Agilent Technologies, Germany) and an Agilent 6,470 series triple quad (TQ) mass spectrometer (MS) (Agilent Technologies, Singapore) equipped with an electrospray ionization source.
Separation was carried out on an ACQUITY UPLC® HSS T3 column (2.1 × 100 mm, 1.8 μm), and temperature in the column was kept at 20°C. In the mobile phase, 0.1% formic acid in water and acetonitrile were used as solvents A and B, respectively. Gradient elution was performed as follows: 1%–5% B at 0–3 min; 5%–30% B at 3–4 min; 30%–40% B at 4–8 min; 40%–100% B at 8–9 min; 100%–100% B at 9–12 min. The flow rate was set at 0.3 ml/min and the injection volume was 10 μL.
Multiple reaction monitoring (MRM) was used for quantitative analysis in negative (−) ionization mode. The mass spectrometric parameters were set as follows: drying gas (N2) temperature was 300°C; gas (N2) flow rate was 7 L/min; atomizer pressure was 35 psi; sheath gas flow was 11 L/min and capillary voltage was 3800 V. The specific mass spectrometric parameters of the precursor ion, product ion, fragmentor, collision energy, and ion modes of the nine compounds and IS are shown in Table 1.
The plasma sample (100 μl) was sequentially spiked with 20 μl IS solutions (caffeic acid, 1,000 ng/ml); 20 μL methanol, and 10 μl formic acid, then vortex-mixed for 1 min. The mixture was precipitated protein with 1,000 μl methanol by vortex mixing for 3 min. The supernatant was collected into a 1.5 ml clean centrifuge tube after centrifugation at for 10 min 14,000 rpm, and evaporated under a nitrogen stream until dry. After that, the residue was redissolved in 100 μl methanol, vortex-mixed for 3 min, then centrifuged for 10 min at 14,000 rpm. 10 μl analyte was injected into the UPLC-MS/MS system.
In this study, six of male rats were used, given free access to water, and fasted for 12 h before the experimental period. The TC extracts were dissolved in 0.5% CMC-Na aqueous solution as a suspension at a concentration of 1 g/ml. A dose of 10 g/kg of the suspension was administered to the rats orally, the blood samples of approximately 300 μL were drawn from the fundus venous plexus of rats pre- and post-oral administration at 0.00, 0.08, 0.17, 0.25, 0.50, 0.75, 1, 2, 4, 6, 8, 10, 12, 24, 36, 48, 60, 72, 84, 96, 120, 144 and 168 h, respectively. For analysis, the plasma supernatants collected from the centrifuged plasma were frozen at −80°C after centrifugation for 10 min at 6,000 rpm.
Data were expressed as mean ± standard deviation (mean ± SD). MassHunter Workstation software (version B.09.00) was quantitatively used to calculate the plasma concentrations of nine analytes. To evaluate the specific pharmacokinetic parameters, DAS Software (DAS 3.0, Medical College of Wannan, China) was used to process the pharmacokinetic results.

- Measured concentration after storage ([1]; spiked 160 ng/mL, autosampler for 12 h): 145.5 ± 16.4 ng/mL
- Measured concentration after storage ([1]; spiked 160 ng/mL, room temperature for 4 h): 160.8 ± 6.2 ng/mL
- Measured concentration after storage ([1]; spiked 160 ng/mL, three freeze-thaw cycles): 167.9 ± 7.8 ng/mL
- Measured concentration after storage ([1]; spiked 160 ng/mL, −80°C for 7 days): 168.0 ± 4.2 ng/mL
- Measured concentration after storage ([1]; spiked 1,600 ng/mL, autosampler for 12 h): 1,448.9 ± 70.5 ng/mL
- Measured concentration after storage ([1]; spiked 1,600 ng/mL, room temperature for 4 h): 1,465.3 ± 158.2 ng/mL
- Measured concentration after storage ([1]; spiked 1,600 ng/mL, three freeze-thaw cycles): 1,391.9 ± 61.5 ng/mL
- Measured concentration after storage ([1]; spiked 1,600 ng/mL, −80°C for 7 days): 1,512.8 ± 65.1 ng/mL
- Measured concentration after storage ([1]; spiked 32000 ng/mL, autosampler for 12 h): 34277.3 ± 2,721.2 ng/mL
- Measured concentration after storage ([1]; spiked 32000 ng/mL, room temperature for 4 h): 31970.0 ± 1,256.3 ng/mL
- Measured concentration after storage ([1]; spiked 32000 ng/mL, three freeze-thaw cycles): 33770.8 ± 3,365.5 ng/mL
- Measured concentration after storage ([1]; spiked 32000 ng/mL, −80°C for 7 days): 31615.2 ± 953.8 ng/mL
- AUC [2]: 231 ± 64.6 µg·h/mL
- AUC(0-inf) [2]: 234 ± 65.7 µg·h/mL
- Cmax [2]: 4980 ng/mL
- MRT [2]: 49.8 ± 4.87 h
- MRT inf [2]: 51.8 ± 5.3 h
- Tmax [2]: 5.67 ± 3.67 h
- half-life [2]: 20 ± 2.51 h
SMILES: O=C(O)C[C@@H]1C(=O)O[C@H]2[C@@H]3OC(=O)c4cc(O)c(O)c(O)c4-c4c(cc(O)c(O)c4O)C(=O)OC[C@H]2O[C@@H](OC(=O)c2cc(O)c(O)c(O)c2)[C@@H]3OC(=O)c2cc(O)c(O)c3c2[C@H]1[C@H](O)C(=O)O3 [Chebulagic acid, chebulagic acid]
- Sensitivity of HepG2 cells towards Dox induced cytotoxicity (HepG2 cells): increased the sensitivity
